Test results taken from ChEMBL document CHEMBL1240358, “Activity of a new antipseudomonal cephalosporin, CXA-101 (FR264205), against carbapenem-resistant and multidrug-resistant Pseudomonas aeruginosa clinical strains” (2010).
Converted amounts (≈) assume the structure as drawn.

Experiments:
Format in all cases: functional
Pseudomonas aeruginosa [1] = assay: Antibacterial activity against carbapenem-resistant Pseudomonas aeruginosa isolate 3D2 GM2 harboring acquired beta-lactamase BEL-3 by broth microdilution method
Pseudomonas aeruginosa [2] = assay: Antibacterial activity against carbapenem-resistant Pseudomonas aeruginosa isolate 1C3 PTOL1 harboring acquired beta-lactamase OXA-17 by broth microdilution method
Pseudomonas aeruginosa [3] = assay: Antibacterial activity against carbapenem-resistant Pseudomonas aeruginosa isolate 1E3 PpA2 harboring acquired beta-lactamase OXA-101 by broth microdilution method
Pseudomonas aeruginosa [4] = assay: Antibacterial activity against Pseudomonas aeruginosa PAO1 by broth microdilution method
Pseudomonas aeruginosa [5] = assay: Antibacterial activity against Pseudomonas aeruginosa PAO1 harboring acquired beta-lactamase OXA-144 by broth microdilution method
Pseudomonas aeruginosa [6] = assay: Antibacterial activity against carbapenem-resistant Pseudomonas aeruginosa isolate 1C2 PTOL1 harboring beta-lactamase OXA-17 by broth microdilution method
Pseudomonas aeruginosa [7] = assay: Antibacterial activity against carbapenem-resistant Pseudomonas aeruginosa isolate 3C8 GM1 harboring acquired beta-lactamase OXA-144 by broth microdilution method
Pseudomonas aeruginosa [8] = assay: Antibacterial activity against carbapenem-resistant Pseudomonas aeruginosa isolate 1E2 PpA1 harboring acquired beta-lactamase OXA-144 by broth microdilution method
Pseudomonas aeruginosa [9] = assay: Antibacterial activity against carbapenem-resistant Pseudomonas aeruginosa isolate 1B2 RCA2 harboring acquired beta-lactamase PER-1 by broth microdilution method
Pseudomonas aeruginosa [10] = assay: Antibacterial activity against Pseudomonas aeruginosa assessed as percent nonsusceptible isolates by broth microdilution assay
Pseudomonas aeruginosa [11] = assay: Antibacterial activity against Pseudomonas aeruginosa PAO1 harboring acquired beta-lactamase OXA-2 by broth microdilution method
Pseudomonas aeruginosa [12] = assay: Antibacterial activity against carbapenem-resistant Pseudomonas aeruginosa isolate 1D5 SA1 harboring acquired beta-lactamase VIM-2 by broth microdilution method
Pseudomonas aeruginosa [13] = assay: Antibacterial activity against carbapenem-resistant Pseudomonas aeruginosa isolate 3C1 VAL6 by broth microdilution method
Pseudomonas aeruginosa [14] = assay: Antibacterial activity against carbapenem-resistant Pseudomonas aeruginosa isolate 1E1 PpA1 harboring acquired beta-lactamase OXA-144 by broth microdilution method
Pseudomonas aeruginosa [15] = assay: Antibacterial activity against carbapenem-resistant Pseudomonas aeruginosa isolate 3C9 GM1 harboring acquired beta-lactamase OXA-144 by broth microdilution method

Row | Compound | MIC (Pseudomonas aeruginosa [1]) | MIC (Pseudomonas aeruginosa [2]) | MIC (Pseudomonas aeruginosa [3]) | MIC (Pseudomonas aeruginosa [4]) | MIC (Pseudomonas aeruginosa [5]) | MIC (Pseudomonas aeruginosa [6]) | MIC (Pseudomonas aeruginosa [7]) | MIC (Pseudomonas aeruginosa [8]) | MIC (Pseudomonas aeruginosa [9]) | Activity (Pseudomonas aeruginosa [10]) | MIC (Pseudomonas aeruginosa [11]) | MIC (Pseudomonas aeruginosa [12]) | MIC (Pseudomonas aeruginosa [13]) | MIC (Pseudomonas aeruginosa [14]) | MIC (Pseudomonas aeruginosa [15])
1 | C[C@@H](O)[C@H]1C(=O)N2C(C(=O)O)=C(SCCNC=N)C[C@H]12 [IMIPENEM ANHYDROUS] | 64 µg/mL (≈ 214 µM) | > 64 µg/mL | 16 µg/mL (≈ 53.4 µM) | 1 µg/mL (≈ 3.34 µM) | 1 µg/mL (≈ 3.34 µM) | > 64 µg/mL | > 64 µg/mL | > 64 µg/mL | 64 µg/mL (≈ 214 µM) | 33.9% | 1 µg/mL (≈ 3.34 µM) | > 64 µg/mL | > 64 µg/mL | > 64 µg/mL | > 64 µg/mL
2 | C[C@@H](O)[C@H]1C(=O)N2C(C(=O)O)=C(S[C@@H]3CN[C@H](C(=O)N(C)C)C3)[C@H](C)[C@H]12 [MEROPENEM] | 4 µg/mL (≈ 10.4 µM) |  |  | 0.25 µg/mL (≈ 0.652 µM) | 0.5 µg/mL (≈ 1.3 µM) |  | 4 µg/mL (≈ 10.4 µM) | 32 µg/mL (≈ 83.4 µM) | 16 µg/mL (≈ 41.7 µM) | 52.1% | 0.5 µg/mL (≈ 1.3 µM) | 16 µg/mL (≈ 41.7 µM) | 4 µg/mL (≈ 10.4 µM) | 16 µg/mL (≈ 41.7 µM) | 4 µg/mL (≈ 10.4 µM)
3 | CCN1CCN(C(=O)N[C@@H](C(=O)N[C@@H]2C(=O)N3[C@@H]2SC(C)(C)[C@@H]3C(=O)O)c2ccccc2)C(=O)C1=O [PIPERACILLIN] |  |  |  | 4 µg/mL (≈ 7.73 µM) | 16 µg/mL (≈ 30.9 µM) |  |  |  |  | 28.4% | 32 µg/mL (≈ 61.8 µM) |  |  |  | 
4 | NC[C@H]1O[C@H](O[C@H]2[C@H](O)[C@@H](O[C@H]3O[C@H](CO)[C@@H](O)[C@H](N)[C@H]3O)[C@H](N)C[C@@H]2N)[C@H](N)C[C@@H]1O [TOBRAMYCIN] | 8 µg/mL (≈ 17.1 µM) | 64 µg/mL (≈ 137 µM) | > 64 µg/mL |  |  | 32 µg/mL (≈ 68.4 µM) | 16 µg/mL (≈ 34.2 µM) | 64 µg/mL (≈ 137 µM) | < 0.12 µg/mL | 33.9% |  | 64 µg/mL (≈ 137 µM) | < 0.12 µg/mL | 64 µg/mL (≈ 137 µM) | 16 µg/mL (≈ 34.2 µM)
5 | GENTAMICIN |  |  |  |  |  |  |  |  |  | 58.9% |  |  |  |  | 
